The term MIC denotes the lowest concentration found to suppress growth. For orientation: IC50 means the concentration needed to halve the response being measured. Lower therefore signals greater potency in that assay.

In brackets after ≈: the same amount, converted by molar mass.

Assay [1] has as its system Staphylococcus aureus. Put plainly: Antibacterial activity against Staphylococcus aureus ATCC 6538p after 24 hrs by twofold serial dilution method. It is filed as functional.
For assay [2], the system named is K562. The assay is described as follows: Cytotoxicity against human K562 cells by MTT assay. The settings on record: read-out: LC50 (the source's name). In kind it is functional.
For assay [3], the system named is Proteus vulgaris. The assay is described as follows: Antibacterial activity against Proteus vulgaris ATCC 3851 after 24 hrs by twofold serial dilution method. It is filed as functional. The settings on record: ATCC 3851, 24 h.
Assay [4] concerns Escherichia coli. The assay is described as follows: Antibacterial activity against Escherichia coli ATCC 25922 after 24 hrs by twofold serial dilution method. In kind it is functional. Particulars: ATCC 25922, 24 h.
The test system of assay [5] is Salmonella typhimurium. Put plainly: Antibacterial activity against Salmonella typhimurium ATCC 14028 after 24 hrs by twofold serial dilution method. In kind it is functional, Salmonella enterica subsp. enterica serovar Typhimurium. Particulars: Salmonella enterica, ATCC 14028, 24 h.
Assay [6] deals with Micrococcus luteus. The assay is described as follows: Antibacterial activity against Micrococcus luteus IFO 12708 after 24 hrs by twofold serial dilution method. The settings on record: IFO 12708, 24 h. It is filed as functional.
Assay [7] relates to Bacillus subtilis. Put plainly: Antibacterial activity against Bacillus subtilis ATCC 6633 after 24 hrs by twofold serial dilution method. In kind it is functional. Particulars: ATCC 6633, 24 h.
Assay [8] can be described thus: Inhibition of Magnaporthe grisea Guy 11 isocitrate lyase. Also on record: species or system Pyricularia oryzae.

Take `CC(=O)OC[C@]12CCCC(C)(C)[C@@H]1CC[C@]1(C)[C@@H]2C[C@@H](OC(C)=O)[C@]2(C)[C@@H]3C(=CC[C@@H]12)CO[C@H]3O`: the MIC in assay [1] is over 100 µg/mL; in assay [3] it was 3.12 µg/mL (≈ 6.39 µM); in assay [4] it was over 100 µg/mL; in assay [5], over 100 µg/mL; in assay [6] it was over 100 µg/mL; in assay [7], 0.78 µg/mL (≈ 1.6 µM). Moreover, in assay [2], the CC50 came to 39.5 µM.
Consider `CO[C@@H]1OC(=O)C2=CC[C@H]3[C@]4(C)CC[C@H]5C(C)(C)CCC[C@]5(C)[C@H]4C[C@@H](OC(C)=O)[C@]3(C)[C@H]21`, for which the MIC in assay [1], in assay [3], in assay [4], in assay [5], in assay [6] and in assay [7] was over 100 µg/mL throughout. In addition, the CC50 in assay [2] came to 38.4 µM. The same molecule came in with an IC50 in assay [8] of 40.8 µM.
On to `CO[C@@H]1OCC2=CC[C@H]3[C@]4(C)CC[C@H]5C(C)(C)CCC[C@]5(C)[C@H]4C[C@@H](O)[C@]3(C)[C@H]21`, for which the MIC in assay [1], in assay [3], in assay [4], in assay [5], in assay [6] and in assay [7] was over 100 µg/mL each time. Further, the CC50 in assay [2] came to 24.6 µM.
As to `CC(=O)OC[C@]12CCCC(C)(C)[C@@H]1CC[C@]1(C)[C@@H]2C[C@@H](O)[C@]2(C)[C@@H]3C(=CC[C@@H]12)CO[C@H]3O`, the MIC was 25 µg/mL (≈ 56 µM) in assay [1]; 12.6 µg/mL (≈ 28.2 µM) in assay [3]; over 100 µg/mL in assay [4]; 12.5 µg/mL (≈ 28 µM) in assay [5]; 12.5 µg/mL (≈ 28 µM) in assay [6]; 6.25 µg/mL (≈ 14 µM) in assay [7]. The CC50 in assay [2] came to 19.5 µM. In addition, in assay [8], the IC50 is 107 µM.
For `CO[C@@H]1OCC2=CC[C@H]3[C@]4(C)CC[C@H]5C(C)(C)CCC[C@]5(C)[C@H]4C[C@@H](OC(C)=O)[C@]3(C)[C@H]21`, the MIC in assay [1], in assay [3], in assay [4], in assay [5], in assay [6] and in assay [7] was over 100 µg/mL each time. In addition, in assay [2], the CC50 is over 100 µM.
On to `CO[C@@H]1C[C@H]2[C@]3(C)CC[C@H]4C(C)(C)CCC[C@]4(C)[C@H]3C[C@@H](OC(C)=O)[C@]2(C)C2=C1C(=O)N(CC(=O)[O-])[C@H]2OC.[Na+]`, for which the MIC in assay [1] is 50 µg/mL; in assay [3] it was 25 µg/mL; in assay [4], 100 µg/mL; in assay [5] it was 50 µg/mL; in assay [6], 25 µg/mL; in assay [7] it was 6.25 µg/mL. Further, the CC50 in assay [2] amounted to 27 µM. In assay [8], this molecule registered an IC50 of 176 µM.
As to `C[C@@]1(CO)CCC[C@]2(C)[C@H]3C[C@@H](O)[C@]4(C)[C@H]5COC(=O)C5=CC[C@H]4[C@]3(C)CC[C@@H]12`, the MIC in assay [1], in assay [3], in assay [4], in assay [5], in assay [6] and in assay [7] was over 100 µg/mL in each case. Besides, in assay [2], the CC50 was 31.1 µM. Moreover, half-maximal inhibition in assay [8] (IC50) was put at 133 µM.
Regarding `CC(=O)O[C@@H]1C[C@@H]2[C@@]3(C)CCCC(C)(C)[C@@H]3CC[C@@]2(C)[C@@H]2CC=C3C(=O)O[C@@H](O)[C@@H]3[C@@]12C`, the MIC in assay [1] is over 100 µg/mL; in assay [3] it was 6.25 µg/mL (≈ 14.1 µM); in assay [4], over 100 µg/mL; in assay [5], over 100 µg/mL; in assay [6], over 100 µg/mL; in assay [7], 6.25 µg/mL (≈ 14.1 µM). Further, the CC50 in assay [2] came out at 28.3 µM. In assay [8], this molecule yielded an IC50 of 112 µM.
`O=C(O)CC[N+](=O)[O-]` returned an IC50 in assay [8] of 27.9 µM.
For the molecule `CO[C@@H]1C[C@H]2[C@]3(C)CC[C@H]4C(C)(C)CCC[C@]4(C)[C@H]3C[C@@H](OC(C)=O)[C@]2(C)C2=C1C(=O)O[C@H]2O`, the MIC worked out at 25 µg/mL (≈ 52.7 µM) in assay [1]; 3.12 µg/mL (≈ 6.58 µM) in assay [3]; 50 µg/mL (≈ 105 µM) in assay [4]; 12.5 µg/mL (≈ 26.3 µM) in assay [5]; 25 µg/mL (≈ 52.7 µM) in assay [6]; 0.78 µg/mL (≈ 1.64 µM) in assay [7]. Also, the CC50 in assay [2] was 36.7 µM.
Take `CC(=O)O[C@@H]1C[C@@H]2[C@@]3(C)CCCC(C)(C)[C@@H]3CC[C@@]2(C)[C@@H]2CC=C3CO[C@@H](O)[C@@H]3[C@@]12C`: the MIC in assay [1], in assay [3], in assay [4], in assay [5], in assay [6] and in assay [7] was over 100 µg/mL in each case. The CC50 in assay [2] worked out at 31.3 µM. The molecule further showed an IC50 in assay [8] of 55.3 µM.
With `CO[C@@H]1C[C@H]2[C@]3(C)CC[C@H]4C(C)(C)CCC[C@]4(C)[C@H]3C[C@@H](OC(C)=O)[C@]2(C)C2=C1[C@H](O)OC2=O` (mixture of isomers), the MIC is 25 µg/mL in assay [1]; 1.56 µg/mL in assay [3]; over 100 µg/mL in assay [4]; 12.5 µg/mL in assay [5]; 25 µg/mL in assay [6]; under 0.39 µg/mL in assay [7]. In assay [2], the CC50 was 14.8 µM.
`CC1(C)S[C@@H]2[C@H](NC(=O)[C@H](N)c3ccccc3)C(=O)N2[C@H]1C(=O)O` [AMPICILLIN]: the minimum inhibitory concentration (MIC) is 1.56 µg/mL (≈ 4.46 µM) in assay [1]; 1.56 µg/mL (≈ 4.46 µM) in assay [3]; 6.25 µg/mL (≈ 17.9 µM) in assay [4]; 1.56 µg/mL (≈ 4.46 µM) in assay [5]; 0.39 µg/mL (≈ 1.12 µM) in assay [6]; 0.78 µg/mL (≈ 2.23 µM) in assay [7].
Regarding `COc1cccc2c1C(=O)c1c(O)c3c(c(O)c1C2=O)C[C@@](O)(C(=O)CO)C[C@@H]3O[C@H]1C[C@H](N)[C@H](O)[C@H](C)O1` [DOXORUBICIN], in assay [2], the CC50 was 9.7 µM.

The record behind these values is ChEMBL document CHEMBL1773036, “Scalarane sesterterpenes from the sponge Hyatella sp” (J Nat Prod, 2011).
